This is an account of results in patent US5475010A, “7'-amino-naphthazarin antibiotic derivatives” (Gruppo Lepetit S.p.A., priority 1991, dated 1995).

Molecules are shown by their SMILES. In brackets after ≈: the same amount, converted by molar mass. Where two headings read alike, the source gives them in different places.

Assay [1] relates to Staphilococcus aureus Tour. The assay can be described thus: MIC by broth microdilution, Staphylococcus aureus Tour. The format is cell-based. Particulars: Iso-Sensitest broth, 37° C., 20-24 h, air.
In assay [2] the test system is Staphilococcus epidermidis ATCC 12228. The assay can be described thus: MIC by broth microdilution, Staphylococcus epidermidis. Particulars: ATCC12228, Table 2, internal code 147, approx. 10^4 cfu/ml, Iso-Sensitest broth, 37° C., 20-24 h, air, read-out: MIC. The format is cell-based. On the technique in general: Broth dilution looks for growth in wells or tubes with falling amounts of substance.

Assay [3] has as its system Staphilococcus haemolyticus (clin. isolate). The assay can be described thus: MIC by broth microdilution, Staphylococcus haemolyticus. Format: cell-based. Conditions: Table 2, internal code 602, approx. 10^4 cfu/ml, Iso-Sensitest broth, 37° C., 20-24 h, air, read-out: MIC.
Assay [4] has as its system Streptococcus pyogenes C 203. The assay is described as follows: MIC by broth microdilution, Streptococcus pyogenes. The format is cell-based.
The test system of assay [5] is Streptococcus pneumonieae UC 41. The assay can be described thus: MIC by broth microdilution, Streptococcus pneumoniae. Format: cell-based.
Assay [6] concerns Enterococcus faecalis ATCC 7080. The assay is described as follows: MIC by broth microdilution, Enterococcus faecalis. The format is cell-based.
In assay [7] the test system is Bacteroides fragiles ATCC 9689. The assay can be described thus: MIC by broth microdilution, Bacteroides fragilis. The format is cell-based. Conditions: ATCC9689, Table 2, internal code 1010, approx. 10^4 cfu/ml, Wilkins-Chalgren broth, 37° C., 48 h, N2-CO2-H2 (80:10:10).
In assay [8] the test system is Propionibacterium acnes ATCC 6919. The assay is described as follows: MIC by broth microdilution, Propionibacterium acnes. Conditions: Cutibacterium acnes, ATCC6919; Table 2; internal code 1014; approx. 10^4 cfu/ml; Wilkins-Chalgren broth; 37° C., 48 h, N2-CO2-H2 (80:10:10); read-out: MIC. Format: cell-based.
Assay [9] relates to Neisseria gonorrhoeae ISM 68/126. The assay can be described thus: MIC by broth microdilution, Neisseria gonorrhoeae. Format: cell-based. Conditions: ISM68/126, Table 2, internal code 997, approx. 10^4 cfu/ml, GC Base broth + 1% IsoVitaleX, 37° C., 48 h, 5% CO2.
In assay [10] the test system is Haemophilus influenzae type b ATCC 19418. The assay is described as follows: MIC by broth microdilution, Haemophilus influenzae. Format: cell-based. Particulars: ATCC19418, Table 2, internal code 970, approx. 10^4 cfu/ml, Brain Heart infusion broth + 1% Supplement C, 37° C., 48 h, 5% CO2.
Assay [11] deals with Escherichia coli SKF 12140. The assay is described as follows: MIC by broth microdilution, Escherichia coli. The format is cell-based. Conditions: SKF12140.
The subject of assay [12] is Pseudomonas aeruginosa ATCC 10145. The assay can be described thus: MIC by broth microdilution, Pseudomonas aeruginosa. The format is cell-based. Conditions: ATCC10145, Table 2, internal code 4, approx. 10^4 cfu/ml, Iso-Sensitest broth, 37° C., 20-24 h, air.
In assay [13] the test system is Proteus vulgaris X19H ATCC 881. The assay is described as follows: MIC by broth microdilution, Proteus vulgaris. The format is cell-based. Conditions: ATCC881.
The subject of assay [14] is Candida albicans SKF 2270. The assay is described as follows: MIC by broth microdilution, Candida albicans. Particulars: Table 2; internal code 145; approx. 10^4 cfu/ml; buffered Yeast Nitrogen Base broth + glucose + L-asparagine; 37° C., 20-24 h, air. Format: cell-based.
Assay [15] relates to Tricophyton mentagrophytes. The assay can be described thus: MIC by broth microdilution, Trichophyton mentagrophytes. Format: cell-based. Particulars: 72 h.
For assay [16], the system named is Gram-positive and Gram-negative bacteria. Conditions: in vitro, known / U.S. Pat. No. 3,914,257, cited from earlier work.
For assay [17], the system named is fungi, including filamentous fungi (e.g., Trichophyton mentarophytes) and yeasts (e.g., Candida albicans). Particulars: in vitro; U.S. Pat. No. 3,914,257; cited from earlier work.
Setting [18] is: Table 2, internal code 165, + 30% bovine serum.
[19] abbreviates: UC41, Table 2, internal code 44, approx. 10^4 cfu/ml, Todd Hewitt broth, 37° C., 20-24 h, air, read-out: MIC.
Where [20] appears, read: Table 2, internal code 165, inoculum 10^6 cfu/ml.
Where [21] appears, read: Table 2, internal code 165, inoculum approx. 10^4 cfu/ml.
Where [22] appears, read: ATCC7080, Table 2, internal code 149, approx. 10^4 cfu/ml, Iso-Sensitest broth, 37° C., 20-24 h, air, read-out: MIC.

As for `CNC1=CC(=O)c2c(O)c3c(c(O)c2C1=O)OC1(C3)CC(O)c2cc3cc(C(=O)OC)oc(=O)c3c(O)c2O1` (centres unmarked) [Example 14, 7'-methylamino purpuromycin], the MIC in assay [1] (setting [18]) amounted to 0.25 mg/L; in [1] (Table 2, internal code 165, inoculum 10^6 cfu/ml, read-out: MIC) it was 0.06 mg/L (≈ 0.112 µM); in assay [1] (Table 2, internal code 165, inoculum approx. 10^4 cfu/ml, read-out: MIC), 0.016 mg/L (≈ 0.0298 µM); in [2], 0.008 mg/L (≈ 0.0149 µM); in [3] it was 0.016 mg/L (≈ 0.0298 µM); in [4] (C203) it was 0.03 mg/L (≈ 0.0558 µM). Besides, the MIC in assay [5] (setting [19]) was 0.016 mg/L (≈ 0.0298 µM); in assay [6] (ATCC7080) it was 0.03 mg/L (≈ 0.0558 µM); in [7], 0.03 mg/L (≈ 0.0558 µM); in [8], 0.008 mg/L (≈ 0.0149 µM); in assay [9], 0.06 mg/L; in [10], 0.13 mg/L. The MIC was > 128 mg/L in assay [11]; > 128 mg/L in [12]; > 128 mg/L in assay [13]; 2 mg/L in [14]; ≤ 0.13 mg/L in assay [15] (Table 2, internal code 634, 1% (v/v) suspension of mycelia and conidia, YM broth, 30° C., air, read-out: MIC).

On to `COC(=O)c1cc2cc3c(c(O)c2c(=O)o1)OC1(Cc2c(O)c4c(c(O)c2O1)C(=O)C(OC)=CC4=O)CC3O` (centres unmarked) [Purpuromycin, purpuromycin], for which the “antimicrobial activity against Gram-positive and Gram-negative bacteria” value in assay [16] is “known antimicrobial agents against Gram-positive and Gram-negative bacteria”; in [16] (listed as purpuromycin), “active in vitro”. The activity against fungi result in [17] is listed as “active in vitro”.

Turning to `COC(=O)c1cc2cc3c(c(O)c2c(=O)o1)OC1(Cc2c(O)c4c(c(O)c2O1)C(=O)C(NCc1ccccc1)=CC4=O)CC3O` (centres unmarked) [Example 8], the MIC in [1] (Table 2, internal code 165, + 30% bovine serum, read-out: MIC) was determined as 32 mg/L; in [1] (setting [20]), 1 mg/L (≈ 1.63 µM); in assay [1] (setting [21]), 0.5 mg/L (≈ 0.815 µM); in [2], 0.13 mg/L (≈ 0.212 µM); in assay [3] it was 0.13 mg/L (≈ 0.212 µM); in assay [4] (C203), 1 mg/L (≈ 1.63 µM). Moreover, the MIC is 0.06 mg/L (≈ 0.0978 µM) in assay [5] (setting [19]); 4 mg/L (≈ 6.52 µM) in [6] (setting [22]); 0.25 mg/L in assay [9]; > 128 mg/L in assay [11]; > 128 mg/L in assay [12]; > 128 mg/L in assay [13]. In assay [15], the MIC is > 128 mg/L.

Take `CCCNC1=CC(=O)c2c(O)c3c(c(O)c2C1=O)OC1(C3)CC(O)c2cc3cc(C(=O)OC)oc(=O)c3c(O)c2O1` (centres unmarked) [Example 12, 7'-propylamino purpuromycin]: the MIC worked out at 2 mg/L in assay [1] (setting [18]); 0.03 mg/L (≈ 0.0531 µM) in assay [1] (setting [20]); 0.03 mg/L (≈ 0.0531 µM) in assay [1] (setting [21]); 0.016 mg/L (≈ 0.0283 µM) in assay [2]; 0.06 mg/L (≈ 0.106 µM) in assay [3]; 0.13 mg/L (≈ 0.23 µM) in assay [4] (C203, Table 2, internal code 49, approx. 10^4 cfu/ml, Todd Hewitt broth, 37° C., 20-24 h, air, read-out: MIC). Also, the MIC is 0.03 mg/L (≈ 0.0531 µM) in [5] (UC41); 0.06 mg/L (≈ 0.106 µM) in assay [6] (setting [22]); 0.03 mg/L (≈ 0.0531 µM) in [7]; 0.06 mg/L in assay [9]; 0.13 mg/L in assay [10]; > 128 mg/L in [11]. Further, the MIC is 128 mg/L (≈ 226 µM) in assay [12], 128 mg/L (≈ 226 µM) in assay [13], 64 mg/L in assay [14] and 128 mg/L (≈ 226 µM) in [15].

As for `COC(=O)c1cc2cc3c(c(O)c2c(=O)o1)OC1(CC3)Cc2c(O)c3c(c(O)c2O1)C(=O)C(OC)=CC3=O` (centres unmarked) [γ-Rubromycin], the “antimicrobial activity against Gram-positive and Gram-negative bacteria” value in assay [16] was “known antimicrobial agents against Gram-positive and Gram-negative bacteria”.
